Results as given in patent US7786258B2, “Methods for inhibiting immune complex formation in a subject” (Trinity Therapeutics, Inc., priority 2004, dated 2010).
Where two headings read alike, the source gives them in different places. Positions of bridges follow the written chain, without caps; N, C: chain ends. Residues, ends and D or L forms follow the SMILES beside them. No end group written: not given here.

Experiments:
[1] = system: DBA/1J mice with collagen-induced arthritis
whole human IgG4 = assay: Inhibition of Fc:Fc interactions: immune complexes on IgG4 coated microwells (Example 3); assay type: binding; conditions: for OD 405 nm: IgG4 coated microwells, positive control (buffer) 0.716
Description: Inhibition of Fc:Fc interactions: The Fc region of IgG4 interacts in an Fc to Fc fashion with immune complexed IgG. Purified IgG4 is used with polypeptides of the invention to examine inhibition of immune complex formation and Fc:Fc interactions. Chemical modification of His435, a critical IgG Fc amino acid bound by polypeptides of the invention, is known to inhibit Fc:Fc interactions.

C1q = assay: Inhibition of C1q binding: reverse ELISA, PAP immune complexes on C1q coated plates (Example 3); set-up: species or system human; conditions: for OD 405 nm: peptide or C1q pre-incubated with PAP 30 minutes, (+) control PAP with no peptide 0.467, lower OD = more inhibition
Description: For this reason, a “reverse ELISA” technique is used to assess binding of the Fc region to ligands that bind to immune complexed IgG Fc. In a reverse ELISA, the enzyme (e.g., HRP) is not covalently conjugated to the Fc portion of the secondary antibody. Rather, a preformed immune complex of peroxidase-rabbit (or mouse) anti-peroxidase IgG (“PAP” complex) is used. […] In the absence of competitor, PAP complexes bind to the immobilized ligand and the reaction between HRP and its substrate produces a signal. This signal is reduced by polypeptides and compounds of the invention that inhibit PAP binding to the immobilized ligand.
Inhibition of C1q binding: Twenty μl of peroxidase (P) (Sigma) was diluted in 2 ml of sample diluent (Quidel Corp, San Diego, Calif.). Twenty μl of anti-peroxidase (AP) (Sigma) was diluted in 2 ml of sample diluent, and 20 μl of the diluted AP was added to the diluted P (1:100 antigen:antibody ratio) to form peroxidase-anti-peroxidase (PAP) complexes. The extreme antigen excess guaranteed that any single antibody would be bound to two peroxidase molecules and larger immune complexes would not form, thus preventing the bridging of larger immune complexes to multimeric C1q (heximeric). One hundred μl of peptide or C1q was pre-incubated with freshly prepared PAP for 30 minutes, added to C1q coated plates (Quidel Corp.), and incubated for one hour. After washing, ABTS substrate (Quidel Corp.) was added to the plates and incubated for 30 minutes, and the plates were read at 405 nm. All peptides were cyclized by forming a disulfide bond between the two cysteine residues.

FcγIIb = assay: Inhibition of FcR binding: reverse ELISA, PAP immune complexes on FcγIIb coated plates (Example 3); conditions: plates read at 450 nm, (+) control PAP with no peptide 3.600
Protocol: (§1) Inhibition of FcR binding: Once the reverse ELISA protocol was established using the C1q assay, the assay was redesigned using FcγIIa, FcγIIb and FcγIII in place of C1q. Highly purified FcγIIa, FcγIIb and FcγIII were immunoadsorbed onto plastic microwells. After optimizing the FcγR reverse ELISA system, simple competitive inhibition experiments using polypeptides of the invention were conducted to investigate their ability to inhibit binding of immune complexes to purified FcγR.
(§2) Falcon microtiter plates were coated with 1:10 dilutions of highly purified FcγIIa, FcγIIb and FcγIII and incubated for 24 hours. […] Equal amounts (50 μl) of peptide and 1:10 PAP immune complexes were pre-incubated for one hour and then incubated on the FcR coated plates for one hour. […] Stop solution (10 μl) was added and the plates were read at 450 nm.

FcγIIa = assay: Inhibition of FcR binding: reverse ELISA, PAP immune complexes on FcγIIa coated plates (Example 3); conditions: plates read at 450 nm, (+) control PAP with no peptide 3.600
Protocol: as §1, §2

human monomeric IgG = assay: Inhibition of rheumatoid factor binding to monomeric IgG (Example 4); conditions: peptides pre-incubated 30 minutes with monomeric IgG, then 200 I.U. RF; (+) control buffer only 1.376
Protocol: The ability of the peptides to inhibit the binding of rheumatoid factor to monomeric IgG was tested. Binding to monomeric IgG may be important, as it may increase the half-life of particular peptides and allow them to be more bioactive.
A standard rheumatoid factor commercial test was used (Research Diagnostics) with the following modifications: 100 μl of test peptides were pre-incubated for 30 minutes with human monomeric IgG (Research Diagnostics). Plates were washed and incubated with 200 I.U. rheumatoid factor positive control supplied with the test kit. The rest of the test was performed according to the manufacturer's instructions.

FcγIII = assay: Inhibition of FcR binding: reverse ELISA, PAP immune complexes on FcγIII coated plates (Example 3); conditions: plates read at 450 nm, (+) control PAP with no peptide 3.600
Protocol: as §1, §2

histone = assay: Inhibition of histone binding: PAP immune complexes on histone-coated plates (Example 3); conditions: rabbit PAP pre-incubated with peptides or histone one hour; (+) control buffer only 1.268
Protocol: Inhibition of histone binding: The binding of immune complexes to the kidneys in lupus nephritis appears to involve (a) the binding of histones to the GBM, and then (b) the binding of immune complexes (through the IgG Fc CH2-CH3 cleft) to the bound histones. Experiments similar to those described above were used to inhibit binding of purified histone to IgG Fc binding. Histone (Sigma) was diluted 1:10 in coating buffer (Alpha Diagnostic International) and incubated on Falcon microtiter plates for 24 hours. Plates were blocked with 5× BSA blocking solution (Alpha Diagnostic International) for 24 hours. Freshly prepared 1:10 rabbit PAP (Sigma) was pre-incubated with either peptides or histone for one hour, and 100 μl of the mixture was added to the histone-coated plates for one hour. Plates were incubated with ABTS substrate (Quidel Corp.) for 45 minutes, and OD 405 was read.

polyclonal IgM RF = assay: Inhibition of RF binding: PAP immune complexes on rheumatoid factor coated plates (Example 3); conditions: for OD 405 nm: PAP pre-incubated 30 minutes with peptides or RF, (+) control PAP with no peptide 0.753; for inhibition of RF binding to immune complexes, in words: Table 3
Protocol: Inhibition of RF binding: The assay to test inhibition of RF binding to the IgG Fc CH2-CH3 clefts was very similar to the C1q-CIC EIA assay described above, with the exception that polyclonal IgM RF was coated onto the microwells instead of C1q. […] High titer, RF positive sera were purchased from Research Diagnostics (Flanders, N.J.).
A 1:10 dilution of 200 μl of 200 I.U. rheumatoid factor (RF) (+) control (positive standard provided by Research Diagnostics was coated onto Falcon microtiter plates and incubated for 24 hours. The plates were blocked with 1:5 BSA blocking buffer (Alpha Diagnostic International) for one hour. Freshly prepared 1:10PAP (antigen:antibody) immune complexes were pre-incubated for 30 minutes with peptides or RF (positive control containing only buffer). After washing, plates were incubated with ABTS substrate (Research Diagnostics) for 30 minutes and then read at 405 nm. Results are shown in Table 3.

MBP = conditions: rabbit PAP pre-incubated with peptide or MBP 30 minutes; (+) control buffer only 1.033
Protocol: Inhibition of MBP binding: MBP (Sigma) was diluted 1:10 with coating buffer (Alpha Diagnostic International) and incubated for 24 hours on Falcon microtiter plates. Plates were washed and then blocked with 5× BSA blocking buffer (Alpha Diagnostic International) for 24 hours. Rabbit 1:10 PAP immune complexes were pre-incubated with equal amounts of peptide or MBP for 30 minutes. One hundred μl of PAP immune complexes/peptide or PAP/MBP was then added to the MBP-coated plates and incubated for one hour. The plates were washed and incubated with TMB substrate (Alpha Diagnostic International) for 30 minutes. After adding stop solution (Alpha Diagnostic International), the plates were read at 450 nm.
Further experiments were conducted to determine the effect of SEQ ID NO:47 (also referred to as NB-406) on binding of MBP to IgG PAP immune complexes.

[2] = 10 mg/kg, versus diseased control

Sequence of whole human IgG4 (P01861 99-327 isoform P01861-1 limits assumed): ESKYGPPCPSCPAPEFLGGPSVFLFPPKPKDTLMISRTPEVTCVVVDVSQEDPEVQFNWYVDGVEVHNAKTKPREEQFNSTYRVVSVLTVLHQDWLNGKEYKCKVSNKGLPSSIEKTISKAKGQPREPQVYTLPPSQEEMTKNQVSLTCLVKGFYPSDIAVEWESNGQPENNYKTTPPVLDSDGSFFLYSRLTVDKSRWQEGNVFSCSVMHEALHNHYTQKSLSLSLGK

Compound | OD 405 nm (whole human IgG4) | OD 405 nm (C1q) | OD at 450 nm (PAP binding to FcγIIb) (FcγIIb) | PAP immune complex binding (OD at 450 nm) (FcγIIa) | OD 405 nm (human monomeric IgG) | OD 450 nm (PAP immune complex binding) (FcγIII) | OD 405 nm (histone) | OD 405 nm (polyclonal IgM RF) | OD 405 nm (MBP) | other results
CC(C)C[C@@H]1NC(=O)[C@H](Cc2c[nH]cn2)NC(=O)[C@H](Cc2c[nH]c3ccccc23)NC(=O)[C@H](C)NC(=O)[C@@H](NC(=O)[C@@H](N)CC(=O)O)CSSC[C@@H](C(=O)N[C@H](C(=O)O)[C@@H](C)O)NC(=O)[C@H](Cc2c[nH]c3ccccc23)NC(=O)[C@H](C(C)C)NC(=O)[C@H](CC(C)C)NC(=O)[C@H](CCC(=O)O)NC(=O)CNC1=O | – | – | – | – | – | – | – | – | – | adverse reactions at injection sites ([1]; daily subcutaneous injections day 32 to day 47, all doses, injection sites examined daily): no adverse reactions were observed; maximum inhibition of arthritic symptoms ([1]; mouse, in vivo): 37%
CC(C)C[C@@H]1NC(=O)[C@H](Cc2c[nH]cn2)NC(=O)[C@H](CCCNC(=N)N)NC(=O)[C@H](C)NC(=O)[C@@H](NC(=O)[C@@H]2CCCN2C(=O)[C@@H]2CCCN2C(=O)[C@H](C)N)CSSC[C@@H](C(=O)N[C@H](C(=O)O)[C@@H](C)O)NC(=O)[C@H](Cc2c[nH]c3ccccc23)NC(=O)[C@H](C(C)C)NC(=O)[C@H](CC(C)C)NC(=O)[C@H](CCC(=O)O)NC(=O)CNC1=O (HELM PEPTIDE1{A.P.P.C.A.R.H.L.G.E.L.V.W.C.T}$PEPTIDE1,PEPTIDE1,4:R3-14:R3$$$V2.0) | – | – | – | – | – | – | – | – | – | adverse reactions at injection sites ([1]; mouse, in vivo, sc): no adverse reactions were observed
APPDCARHLGELVWCT (Synthetically generated polypeptide) | 0.107 | – | – | – | – | – | – | – | – | –
DCAAHLGELAACT (disulfide 2-12 (inferred)) | – | 0.458 | 2.263 | 2.434 | 1.421 | 2.413 | – | – | – | inhibition of immune complex binding to solid phase C1q, in words (C1q; Table 1): not significantly different from the positive control
DCARHLGELVWCT (disulfide 2-12 (inferred)) | 0.096 | 0.193 | 1.952 | 2.539 | 1.231 | 2.529 | 0.363 | 0.109 | 0.473 | inhibition of Fc:Fc binding, in words (whole human IgG4; text on Table 8): strongest inhibition; inhibition of RF binding to immune complexes, in words (polyclonal IgM RF): very effective inhibition
DCAWHLGELAACT (disulfide 2-12 (inferred)) [peptide substituted with alanine at positions 10 and 11] | 0.557 | – | 1.067 | 1.484 | 1.397 | 1.345 | 0.729 | 0.622 | 0.706 | –
PCARHLGELVWCT (disulfide 2-12 (inferred)) | 0.129 | 0.205 | 1.211 | 1.149 | 1.323 | 1.602 | 0.444 | 0.106 | 0.489 | inhibition of RF binding to immune complexes, in words (polyclonal IgM RF): very effective inhibition
RCARHLGELVWCT (disulfide 2-12 (inferred)) | 0.191 | 0.247 | 3.284 | 3.398 | 1.314 | 3.502 | 0.359 | 0.152 | 0.569 | –
REMICADE: REMICADE® was obtained from Centocor (Malvern, Pa.) | – | – | – | – | – | – | – | – | – | effect on arthritic symptoms, in words ([1]; 10 mg/kg): no effect; effect on histological symptoms of arthritis, in words ([1]; 10 mg/kg): no effect; Arthritic Index ([1]; 10 mg/kg subcutaneously daily, average over final three days of treatment, diseased control 3.8): 3.8; Histological Evaluation ([1]; 10 mg/kg, hindlimbs, day 48, diseased control 45): 45; Arthritic Index Percent Change [1, 2]: 0%; Histological Evaluation Percent Change [1, 2]: 0%; adverse reactions at injection sites ([1]; mouse, in vivo, sc): no adverse reactions were observed
